Measurements published in patent US20250008959A1, “HERBICIDES AND USE THEREOF” (Projini Agchem LTD, priority 2021, published 2025).
pIC50, pKd: −log10 of the molar value.

Columns and labels:
[1] = target: T1, OASS-SAT complex (AtOASS with SAT-derived peptide) (Arabidopsis thaliana, UniProt P47998); assay: Fluorescence polarization (FP) competition with FITC-labeled SAT-derived peptide bound to OASS; format: binding; details: competition with FITC-SAT peptide 200 nM, OASS 2.2 μM; for pIC50: single site inhibition model
T1 construct: GST (N, cleaved yes); made in house; host or cells: E. coli Rosetta (DE3)
Experimental: Molecules were also tested for their ability to compete with the OASS binding to the SAT-derived peptide via a fluorescence polarization (FP) competition assay wherein the N-terminus labeled peptide was incubated with the AtOASS (see Examples section below). High FP values correspond to the peptide-bound state (low molecule concentrations) and low FP values correspond to the peptide-free state (low FP values). To extract the IC50, the FP data were fitted to a single site inhibition model in PRISM by GraphPad Software. The corresponding IC50 values were extracted, whereas low IC50 values correspond to molecule that better competes with the peptide binding to AtOASS. Fluorescence polarization (FP) measurements were made on samples arrayed in 96-well plates by using BioTek H1 Synergy instrument equipped with FP module. […] The peptide in a concentration of 200 nM was incubated with OASS at a concentration of 2.2 μM in each well. Variable concentrations of each molecule starting from 100 μM down to 0.048 μM were added to evaluate the ability of each molecule to compete off the FITC labeled peptide bound to OASS. Fluorescence experiments were executed with an Em/Exc wavelengths of 480/520 nm. All measurements were done in triplicate. Experimental polarization data from simple and competitive binding experiments were fitted using GraphPad Prism, with error bars representing SD. Molecules were also tested for their ability to compete with the OASS binding to the SAT-derived peptide via a fluorescence polarization (FP) competition assay. The N-terminus labeled peptide was incubated with the AtOASS in each of the wells in a 96-well plate. Various concentrations of the molecules were added and the FP values were recorded. High FP values correspond to the peptide-bound state (low molecule concentrations) and low FP values correspond to the peptide-free state (low FP values). To extract the IC50, the FP data were fitted to a single site inhibition model in graphpad prism. The corresponding IC50 values were extracted. Low IC50 values correspond to molecule that better competes with the peptide binding to AtOASS.

[2] = target: T2, AtOASS (O-acetyl serine sulfhydrylase from Arabidopsis thaliana) (Arabidopsis thaliana, UniProt P47998); assay: Isothermal titration calorimetry (ITC) binding to OASS; details: for pKd: OASS titrated into compound in ITC cell, single binding model; for direct binding to AtOASS by ITC (in vitro screening of purchased virtual hits): result in words
T2 construct: GST (N, cleaved yes); made in house; host or cells: E. coli Rosetta (DE3)
Source text: To evaluate the ability of the molecules to bind AtOASS (O-acetyl serine sulfhydrylase from Arabidopsis thaliana), the protein was placed in the ITC syringe and was titrated with the molecules that were placed in the ITC cell (see Examples section below). The direct dissociation binding constant (Kd) was then extracted from the binding curve using a single binding model, wherein a low Kd value corresponds to a stronger binding affinity.
To evaluate the binding of the small molecules to the enzyme OASS, the purified protein was placed in a 6-8 MWCO dialysis bag in 30 mM phosphate buffer, 30 mM NaCl, 1 mM TCEP, and 5% dimethyl sulfoxide. Sequential buffer exchange dialyses were executed for 12 hours each at 4° C. until dilution of >10,000 was achieved. Before the execution of the ITC binding experiment, the OASS was placed in the ITC syringe at a concentration of 400 μM and each of the small molecules was dissolved in the same dialysis buffer to a final concentration of 40 μM in the ITC cell. ITC experiments were conducted by titrating the OASS to the compounds in the cell. The ITC binding constant was evaluated using the build-in analysis software.
The designed de-novo herbicidal compounds were synthesized and evaluated for their in vitro and in planta activity. After dissolving the molecules to a stock of 50 mM in DMSO, binding and competition with the SAT-derived peptides were evaluated using ITC and FP. ITC measures the direct heat change occurring due to the interaction of a pair of molecules. ITC has certain advantages, such as the capability to detect a relatively broad range of binding affinities, being a label-free method, and providing a wide set of interaction parameters, such as affinity, stoichiometry, enthalpy, and entropy of binding. To evaluate the ability of the molecules to bind AtOASS, the protein was placed in the ITC syringe and was titrated with the molecules that were placed in the ITC cell. The direct dissociation binding constant (Kd) was then extracted from the binding curve using a single binding model. Two consecutive experiments were combined using the built in ITC module to enable better quantification. A low Kd value corresponds to a stronger binding affinity.

Arabidopsis thaliana = assay: Root elongation in plates (in planta root elongation assay); format: in vivo; details: 168 h, A. thaliana on MS medium plates, 7 days, read-out: Root-growth inhibition %
Experimental: 6-well plates were prepared in a biological hood with sterile half Murashige and Skoog mineral medium (MS; Duchefa, Haarlem, Netherlands) containing 1% sucrose (w/v), pH 5.8. Tested molecules were dissolved in 50 mM DMSO and diluted to various concentrations 1,000-fold greater than the final desired concentration the MS medium maintaining a final concentration of 0.1% DMSO. MS medium with 0.1% DMSO was used as a negative control. After 7 days the plates were scanned and the root length was calculated using the imageJ software. […] Further sterilization was done by washing the seeds with 50% hypochlorite and 0.2% Triton x-100 for 10 minutes followed by five cycles of washing with sterile water. Six seeds were placed in each well, and the plates were covered and sealed with parafilm. Plates were placed vertically at 4° C. for two days and then transferred to a growth chamber for seven days (22-24° C.) at day/light cycles of 16/8 hours. Following the in vitro evaluation, selected molecules were tested for their ability to inhibit A. thaliana root elongation on agar plates. Seeds were plated on medium containing the molecules dissolved in the indicated concentrations and root length was measured after 6 or 7 days when the root in the non-treated plate reached the end of the well.

T2 sequence (P47998 whole entry): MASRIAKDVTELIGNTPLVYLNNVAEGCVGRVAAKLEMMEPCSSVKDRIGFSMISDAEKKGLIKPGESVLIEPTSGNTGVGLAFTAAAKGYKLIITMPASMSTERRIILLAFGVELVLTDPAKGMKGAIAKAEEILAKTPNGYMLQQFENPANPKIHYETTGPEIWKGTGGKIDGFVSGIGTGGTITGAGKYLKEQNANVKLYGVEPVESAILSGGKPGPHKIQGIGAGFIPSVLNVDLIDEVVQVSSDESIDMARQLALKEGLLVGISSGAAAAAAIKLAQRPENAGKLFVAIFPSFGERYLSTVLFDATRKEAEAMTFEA
T1 sequence (P47998 whole entry, one chain of several): as the sequence (P47998 whole entry) above

SMILES	FP % inhibition [1] [%]	pIC50 [1]	pKd [2]	inhibition at 50 µM (Arabidopsis thaliana) [%]	direct binding to AtOASS by ITC (in vitro screening of purchased virtual hits) [2]
O=C(O)c1cc2c(c(S(=O)(=O)Nc3cc(Cl)c(Cl)c(C(=O)O)c3)c1)CCC2 [PJL-29]	13	3.88	5.46	11	
COc1ccc(C(=O)O)cc1S(=O)(=O)Nc1ccc(NC(=O)CC(C)C)cc1 [PJL-30]	11	3.52	5.18	0	
O=C(O)c1cc2c(c(S(=O)(=O)Nc3cccc(NC(=O)C4CC4)c3)c1)CCC2 [PJL-39]	12	3.90	5.00	18	
O=C(O)c1cc(F)ccc1NS(=O)(=O)c1cnc(-c2ccc(F)cc2)s1 [PJL-41]	19	4.47	5.32	85	showed direct binding to AtOASS by ITC
Cc1ccnn1-c1cccc(NS(=O)(=O)c2cc(C(=O)O)cc3c2CCC3)c1 [PJL-43]	17	4.06	5.00	6	
O=C(Nc1cccc(NC(=O)c2ccccc2-c2ccccc2C(=O)O)c1)c1ccco1 [PJL-60]	32	5.32	5.90	0	
O=C(Nc1nccs1)c1cccc(NC(=O)c2ccccc2-c2ccccc2C(=O)O)c1 [PJL-62]	31	5.17	5.70	0	
O=C(Nc1cccc(O)c1)c1cccc(NC(=O)c2ccccc2-c2ccccc2C(=O)O)c1 [PJL-63]	34	5.20	5.83	12	
O=C(O)c1ccccc1-c1ccccc1C(=O)Nc1cccc(O)c1 [PJL-64]	23	4.89	5.47	23	
O=C(O)c1ccccc1-c1ccccc1C(=O)Nc1cccc(-c2nc3ccccc3[nH]2)c1 [PJL-65]	38	5.40	5.75	0	
CCc1nnc(NC(=O)c2ccccc2-c2ccccc2C(=O)O)s1 [PJL-66]	17	4.51	5.07	0	
CC(C)(C)NC(=O)c1ccc(NC(=O)c2ccccc2-c2ccccc2C(=O)O)cc1 [PJL-67]	30	4.68	5.62	9	
O=C(O)c1ccccc1-c1ccccc1C(=O)Nc1cccc(NNc2nccs2)c1 [PJL-68]	32	5.00	5.47	0	
O=C(O)c1cc2c(c(S(=O)(=O)Nc3cccc(-c4noc(C5CCCO5)n4)c3)c1)CCC2 (stereo not shown) [PJL-69]	21		5.09		
CCc1nnc(-c2ccc(O)c(NC(=O)Cc3ccccc3C(=O)O)c2)o1 [PJL-92]	13	3.91		0	
CC(C)c1n[nH]c(-c2ccc(NC(=O)Cc3ccccc3C(=O)O)cc2)n1 [PJL-95]	27	4.66		10	
CC(C)c1n[nH]c(-c2cccc(NC(=O)Cc3ccccc3C(=O)O)c2)n1 [PJL-96]	22	4.37		2	
CC(C)Cc1ccc(-c2csc(NC(=O)c3ccccc3-c3ccccc3C(=O)O)n2)cc1 [PJL-108]	47	5.33		17	
Nc1cc(F)ccc1-c1csc(NC(=O)c2ccccc2-c2ccccc2C(=O)O)n1 [PJL-111]	45			66	
COc1ccc(C(=O)O)c(NS(=O)(=O)c2cnn(-c3cccc(C(F)(F)F)c3)c2)c1 [PJL-114]	17	4.39	4.92		
O=C(O)c1ccccc1-c1cccnc1C(=O)Nc1nc(-c2ccc(Cl)cc2Cl)cs1 [PJL-115]	36	4.92		96	
O=C(O)c1cc(F)ccc1-c1ccccc1C(=O)Nc1nc(-c2ccc(Cl)cc2Cl)cs1 [PJL-119]	52	5.07		100	
O=C(O)c1ccccc1-c1ccccc1C(=O)Nc1cc(-c2ccc(Cl)cc2Cl)c[nH]c1=O [PJL-120]	14	3.94		88	
COc1ccc(C(=O)O)c(NS(=O)(=O)c2cnn(-c3ccc(F)cc3)c2)c1 [PJL-121]	4.6	3.49		72	
O=C(O)c1ccccc1-c1cc(O)ccc1C(=O)Nc1nc(-c2ccc(Cl)cc2Cl)cs1 [PJL-130]	52	5.47		93	
CC(C)CNC(=O)c1cccc(NC(=O)c2ccccc2-c2ccccc2C(=O)O)c1 [PJS-120]					showed direct binding to AtOASS by ITC
O=C(O)c1ccc(Cl)c(S(=O)(=O)Nc2cccc(C(=O)Nc3cccc(C(F)(F)F)c3)c2)c1 [PJS-227]	18	4.27		39	
